# Laboratory results taken from PubChem BioAssay AID1259407 (Chemical Carcinogenesis Research Information System (CCRIS), 2018).
# Calls of active or inactive are those of the source. How the calls were made is not given here.
# Tested on: CCRIS mutagenicity, Ames/micronucleus/aberration tests
# Assay: CCRIS mutagenicity studies
# [1] = Test System: AMES SALMONELLA TYPHIMURIUM, Strain/Indicator: TA1538, Metabolic Activation: RAT, LIVER, S-9, AROCLOR 1254, Method: STANDARD PLATE
# [2] = Test System: AMES SALMONELLA TYPHIMURIUM, Strain/Indicator: TA100, Metabolic Activation: NONE, Method: STANDARD PLATE
# [3] = Test System: AMES SALMONELLA TYPHIMURIUM, Strain/Indicator: TA98, Metabolic Activation: NONE, Method: STANDARD PLATE
# [4] = Test System: AMES SALMONELLA TYPHIMURIUM, Strain/Indicator: TA1535, Metabolic Activation: NONE, Method: STANDARD PLATE
smiles,measurement,setting,value
COc1cc(-c2ccc(N/N=C3\C(=O)c4c(O)cc(S(=O)(=O)O)cc4C=C3S(=O)(=O)O)c(OC)c2)ccc1N/N=C1\C(=O)c2c(O)cc(S(=O)(=O)O)cc2C=C1S(=O)(=O)O,mutagenic call,"Test System: AMES SALMONELLA TYPHIMURIUM, Strain/Indicator: TA98, Metabolic Activation: HAMSTER, LIVER, S-9, AROCLOR 1254 (10%), Method: PREINCUBATION",inactive; negative
same,mutagenic call,"Test System: AMES SALMONELLA TYPHIMURIUM, Strain/Indicator: TA98, Metabolic Activation: NONE, Method: PREINCUBATION",inactive; negative
same,mutagenic call,"Test System: AMES SALMONELLA TYPHIMURIUM, Strain/Indicator: TA98, Metabolic Activation: RAT, LIVER, S-9, AROCLOR 1254 (10%), Method: PREINCUBATION",inactive; negative
same,mutagenic call,"Test System: AMES SALMONELLA TYPHIMURIUM, Strain/Indicator: TA100, Metabolic Activation: HAMSTER, LIVER, S-9, AROCLOR 1254 (10%), Method: PREINCUBATION",inactive; negative
same,mutagenic call,"Test System: AMES SALMONELLA TYPHIMURIUM, Strain/Indicator: TA100, Metabolic Activation: NONE, Method: PREINCUBATION",inactive; negative
same,mutagenic call,"Test System: AMES SALMONELLA TYPHIMURIUM, Strain/Indicator: TA100, Metabolic Activation: RAT, LIVER, S-9, AROCLOR 1254 (10%), Method: PREINCUBATION",inactive; negative
same,mutagenic call,"Test System: AMES SALMONELLA TYPHIMURIUM, Strain/Indicator: TA1535, Metabolic Activation: HAMSTER, LIVER, S-9, AROCLOR 1254 (10%), Method: PREINCUBATION",inactive; negative
same,mutagenic call,"Test System: AMES SALMONELLA TYPHIMURIUM, Strain/Indicator: TA1535, Metabolic Activation: NONE, Method: PREINCUBATION",inactive; negative
same,mutagenic call,"Test System: AMES SALMONELLA TYPHIMURIUM, Strain/Indicator: TA1535, Metabolic Activation: RAT, LIVER, S-9, AROCLOR 1254 (10%), Method: PREINCUBATION",inactive; negative
same,mutagenic call,"Test System: AMES SALMONELLA TYPHIMURIUM, Strain/Indicator: TA1537, Metabolic Activation: HAMSTER, LIVER, S-9, AROCLOR 1254 (10%), Method: PREINCUBATION",inactive; negative
same,mutagenic call,"Test System: AMES SALMONELLA TYPHIMURIUM, Strain/Indicator: TA1537, Metabolic Activation: NONE, Method: PREINCUBATION",inactive; negative
same,mutagenic call,"Test System: AMES SALMONELLA TYPHIMURIUM, Strain/Indicator: TA1537, Metabolic Activation: RAT, LIVER, S-9, AROCLOR 1254 (10%), Method: PREINCUBATION",inactive; negative
same,mutagenic call,[1],inactive; negative
c1ccc2c(c1)-c1ccc3ccc4cccc5cc-2c1c3c45,mutagenic call,[2],inactive; negative
same,mutagenic call,"Test System: AMES SALMONELLA TYPHIMURIUM, Strain/Indicator: TA100, Metabolic Activation: RAT, LIVER, S-9, AROCLOR 1254, Method: PREINCUBATION",active; positive
same,mutagenic call,"Test System: AMES SALMONELLA TYPHIMURIUM, Strain/Indicator: TA100, Metabolic Activation: RAT, LIVER, S-9, AROCLOR 1254, Method: STANDARD PLATE",active; positive
same,mutagenic call,"Test System: AMES SALMONELLA TYPHIMURIUM, Strain/Indicator: TA1537, Metabolic Activation: RAT, LIVER, S-9, AROCLOR 1254, Method: STANDARD PLATE",active; positive
same,mutagenic call,[1],active; positive
CCN(CC)CC#CC(C)(C)OC(=O)C(O)(c1ccccc1)C1CCCCC1 (stereo not drawn),mutagenic call,[3],inactive; negative
same,mutagenic call,"Test System: AMES SALMONELLA TYPHIMURIUM, Strain/Indicator: TA98, Metabolic Activation: RAT, LIVER, S-9, PHENOBARBITAL AND 5,6-BENZOFLAVONE, Method: STANDARD PLATE",inactive; negative
same,mutagenic call,[2],inactive; negative
same,mutagenic call,"Test System: AMES SALMONELLA TYPHIMURIUM, Strain/Indicator: TA100, Metabolic Activation: RAT, LIVER, S-9, PHENOBARBITAL AND 5,6-BENZOFLAVONE, Method: STANDARD PLATE",inactive; negative
same,mutagenic call,[4],inactive; negative
same,mutagenic call,"Test System: AMES SALMONELLA TYPHIMURIUM, Strain/Indicator: TA1535, Metabolic Activation: RAT, LIVER, S-9, PHENOBARBITAL AND 5,6-BENZOFLAVONE, Method: STANDARD PLATE",inactive; negative
same,mutagenic call,"Test System: AMES SALMONELLA TYPHIMURIUM, Strain/Indicator: TA1537, Metabolic Activation: NONE, Method: STANDARD PLATE",inactive; negative
same,mutagenic call,"Test System: AMES SALMONELLA TYPHIMURIUM, Strain/Indicator: TA1537, Metabolic Activation: RAT, LIVER, S-9, PHENOBARBITAL AND 5,6-BENZOFLAVONE, Method: STANDARD PLATE",inactive; negative
same,mutagenic call,"Test System: E. COLI, Strain/Indicator: WP2 UVRA, Metabolic Activation: NONE, Method: STANDARD PLATE",inactive; negative
same,mutagenic call,"Test System: E. COLI, Strain/Indicator: WP2 UVRA, Metabolic Activation: RAT, LIVER, S-9, PHENOBARBITAL AND 5,6-BENZOFLAVONE, Method: STANDARD PLATE",inactive; negative
C#C[C@]1(O)CC[C@H]2[C@@H]3CCc4cc(OC)ccc4[C@H]3CC[C@@]21C,mutagenic call,"End Point: IN VITRO CHROMOSOMAL ABERRATIONS, Test System: HUMAN PERIPHERAL LYMPHOCYTES, Metabolic Activation: NONE",active; positive (total aberrations excluding gaps); positive at higher dose levels
same,mutagenic call,"End Point: IN VIVO CHROMOSOMAL ABERRATIONS, Test System: BONE MARROW CELLS, Species: MOUSE, Strain/Sex: SWISS/MALE, Route: IP INJECTION (ONCE)",active; positive
same,mutagenic call,"End Point: IN VIVO MICRONUCLEUS, Test System: BONE MARROW POLYCHROMATIC ERYTHROCYTES, Species: MOUSE, Strain/Sex: SWISS/MALE, Route: IP INJECTION (SINGLE DOSE)",active; positive
same,mutagenic call,"Test System: AMES SALMONELLA TYPHIMURIUM, Strain/Indicator: TA97A, Metabolic Activation: NONE, Method: STANDARD PLATE",inactive; negative
same,mutagenic call,"Test System: AMES SALMONELLA TYPHIMURIUM, Strain/Indicator: TA97A, Metabolic Activation: RAT, LIVER, S-9, PHENOBARBITONE, Method: PREINCUBATION",inactive; negative
same,mutagenic call,[3],inactive; negative
same,mutagenic call,"Test System: AMES SALMONELLA TYPHIMURIUM, Strain/Indicator: TA98, Metabolic Activation: RAT, LIVER, S-9, PHENOBARBITONE, Method: PREINCUBATION",inactive; negative
same,mutagenic call,[2],inactive; negative
same,mutagenic call,"Test System: AMES SALMONELLA TYPHIMURIUM, Strain/Indicator: TA100, Metabolic Activation: RAT, LIVER, S-9, PHENOBARBITONE, Method: PREINCUBATION",inactive; negative
same,mutagenic call,[4],inactive; negative
same,mutagenic call,"Test System: AMES SALMONELLA TYPHIMURIUM, Strain/Indicator: TA1535, Metabolic Activation: RAT, LIVER, S-9, PHENOBARBITONE, Method: PREINCUBATION",inactive; negative
same,mutagenic call,"Test System: HOST-MEDIATED ASSAY WITH SALMONELLA, Strain/Indicator: TA97A, Metabolic Activation: MALE SWISS MOUSE, SALMONELLA ADMINISTERED 4 HR AFTER 2ND INJECTION: SACRIFICE 2 HR LATER, Method: 2 INJECTIONS AT 12 HR INTERVAL",inactive; negative
same,mutagenic call,"Test System: HOST-MEDIATED ASSAY WITH SALMONELLA, Strain/Indicator: TA98, Metabolic Activation: MALE SWISS MOUSE, SALMONELLA ADMINISTERED 4 HR AFTER 2ND INJECTION: SACRIFICE 2 HR LATER, Method: 2 INJECTIONS AT 12 HR INTERVAL",inactive; negative
same,mutagenic call,"Test System: HOST-MEDIATED ASSAY WITH SALMONELLA, Strain/Indicator: TA100, Metabolic Activation: MALE SWISS MOUSE, SALMONELLA ADMINISTERED 4 HR AFTER 2ND INJECTION: SACRIFICE 2 HR LATER, Method: 2 INJECTIONS AT 12 HR INTERVAL",inactive; negative
same,mutagenic call,"Test System: HOST-MEDIATED ASSAY WITH SALMONELLA, Strain/Indicator: TA1535, Metabolic Activation: MALE SWISS MOUSE, SALMONELLA ADMINISTERED 4 HR AFTER 2ND INJECTION: SACRIFICE 2 HR LATER, Method: 2 INJECTIONS AT 12 HR INTERVAL",inactive; negative
Nc1c(Cl)cc(-c2cc(Cl)c(N)c(Cl)c2)cc1Cl,mutagenic call,"Test System: UDS HUMAN CELLS, Strain/Indicator: THY INCORP (NON-S-PHASE), Metabolic Activation: RAT, LIVER, S-9, PHENOBARBITAL, Method: LIQUID SCINTILLATION COUNTING",active; positive
O=C1OC(=C(Cl)Cl)C(Cl)=C1Cl,mutagenic call,[2],active; positive
Oc1ccccc1F,mutagenic call,"Test System: MOUSE LYMPHOMA, Strain/Indicator: L5178Y (TK+/TK-), Metabolic Activation: RAT, LIVER, S-9, AROCLOR 1254, Method: SUSPENSION/PLATE",active; positive. reevaluation of results: positive
same,mutagenic call,"Test System: Mouse lymphoma, Strain/Indicator: L5178Y (tk+/tk-), Metabolic Activation: None, Method: Suspension/plate",inactive; negative
same,mutagenic call,"Test System: Mouse lymphoma, Strain/Indicator: L5178Y (tk+/tk-), Metabolic Activation: Rat, Liver, S-9, Aroclor 1254, Method: Suspension/plate",inactive; inconclusive (previous evaluation negative)
